Molecules are shown by their SMILES.

The target in one test is T1, Dimer of Gag-Pol polyprotein [501-599] (Human immunodeficiency virus 1, UniProt P03367).
T1 construct: 501-599
Briefly: Protease Inhibition Assay.
Conditions: not given
The protocol:
HIV-1 protease activity was measured by a continuous fluorometric assay. The proteolytic activity can be monitored by the increase in fluorescence intensity, and the protease products were analyzed by HPLC. IC50 values were determined from a dose-response curve, whereas Ki values were obtained by fitting initial rates to a tight-binding inhibition equation.
As a reminder, the IC50 is the concentration that gives 50% inhibition. Low readings indicate greater potency, high ones weaker potency. In general, Ki refers to a dissociation constant, usually derived from enzyme kinetics or from competition with a known ligand. A low value points to higher affinity. Compound `CC(C)CN(C(CO)CCCCNC(=O)[C@@H](N)C(c1ccccc1)c1ccccc1)S(=O)(=O)c1ccc(N)cc1` (stereo partly drawn) [(2S)-2-amino-N-[(5R)-5-[(4-aminobenzene)(2-methylpropyl)sulfonamido]-6-hydroxyhexyl]-3,3-diphenylpropanamide] had an IC50 of 0.5 nM and a Ki of 0.56 nM. In turn, `CC(C)CN(C(CO)CCCCNC(=O)[C@@H](NC(=O)C1CCCCC1)C(c1ccccc1)c1ccccc1)S(=O)(=O)c1ccc(N)cc1` (stereo partly drawn) [(2S)-N-[(5R)-5-[(4-aminobenzene)(2-methylpropyl)sulfonamido]-6-hydroxyhexyl]-2-(cyclohexylformamido)-3,3-diphenylpropanamide] had a half-maximal inhibitory concentration (IC50) of less than 3.8 nM. Regarding `CC(C)CN(C(CO)CCCCNC(=O)[C@@H](NC(=O)C1CC1)C(c1ccccc1)c1ccccc1)S(=O)(=O)c1ccc(N)cc1` (stereo partly drawn) [(2S)-N-[(5R)-5-[(4-aminobenzene)(2-methylpropyl)sulfonamido]-6-hydroxyhexyl]-2-(cyclopropylformamido)-3,3-diphenylpropanamide], the IC50 was 0.43 nM and the Ki is 0.45 nM.

Regarding `CC(C)CN(C(CO)CCCCNC(=O)[C@@H](NC(=O)N1CCOCC1)C(c1ccccc1)c1ccccc1)S(=O)(=O)c1ccc(N)cc1` (stereo partly drawn) [(2S)-N-[(5R)-5-[(4-aminobenzene)(2-methylpropyl)sulfonamido]-6-hydroxyhexyl]-2-(morpholin-4-ylcarbonylamino)-3,3-diphenylpropanamide], the midpoint of inhibition, the IC50, lay at 0.51 nM and the Ki is 0.55 nM. The like results for `CC(C)CN(C(CO)CCCCNC(=O)[C@@H](NC(=O)c1ccccc1O)C(c1ccccc1)c1ccccc1)S(=O)(=O)c1ccc(N)cc1` (stereo partly drawn) [(2S)-N-[(5R)-5-[(4-aminobenzene)(2-methylpropyl)sulfonamido]-6-hydroxyhexyl]-2-[(2-hydroxyphenyl)formamido]-3,3-diphenylpropanamide] were, in that order, 0.63 nM and 0.58 nM. The like results for `Cc1ncccc1C(=O)N[C@H](C(=O)NCCCCC(CO)N(CC(C)C)S(=O)(=O)c1ccc(N)cc1)C(c1ccccc1)c1ccccc1` (stereo partly drawn) [(2S)-N-[(5R)-5-[(4-aminobenzene)(2-methylpropyl)sulfonamido]-6-hydroxyhexyl]-2-[(2-methylpyridin-3-yl)formamido]-3,3-diphenylpropanamide] were, in that order, 0.4 nM and 0.4 nM.

The compound `CC(C)CN(C(CO)CCCCNC(=O)[C@@H](NC(=O)c1ccc([N+](=O)[O-])c(O)c1)C(c1ccccc1)c1ccccc1)S(=O)(=O)c1ccc(N)cc1` (stereo partly drawn) [(2S)-N-[(5R)-5-[(4-aminobenzene)(2-methylpropyl)sulfonamido]-6-hydroxyhexyl]-2-[(3-hydroxy-4-nitrophenyl)formamido]-3,3-diphenylpropanamide] registered an IC50 of 0.33 nM and a Ki of 0.33 nM. The compound `CC(C)CN(C(CO)CCCCNC(=O)[C@@H](NC(=O)c1cccc(O)c1)C(c1ccccc1)c1ccccc1)S(=O)(=O)c1ccc(N)cc1` (stereo partly drawn) [(2S)-N-[(5R)-5-[(4-aminobenzene)(2-methylpropyl)sulfonamido]-6-hydroxyhexyl]-2-[(3-hydroxyphenyl)formamido]-3,3-diphenylpropanamide] registered an IC50 of 0.4 nM and a Ki of 0.4 nM.

For `CC(C)CN(C(CO)CCCCNC(=O)[C@@H](NC(=O)c1ncccc1O)C(c1ccccc1)c1ccccc1)S(=O)(=O)c1ccc(N)cc1` (stereo partly drawn) [(2S)-N-[(5R)-5-[(4-aminobenzene)(2-methylpropyl)sulfonamido]-6-hydroxyhexyl]-2-[(3-hydroxypyridin-2-yl)formamido]-3,3-diphenylpropanamide], the IC50 was determined as 0.9 nM and the affinity corresponds to a Ki of 0.7 nM. The like results for `COc1cc(C(=O)N[C@H](C(=O)NCCCCC(CO)N(CC(C)C)S(=O)(=O)c2ccc(N)cc2)C(c2ccccc2)c2ccccc2)ccc1O` (stereo partly drawn) [(2S)-N-[(5R)-5-[(4-aminobenzene)(2-methylpropyl)sulfonamido]-6-hydroxyhexyl]-2-[(4-hydroxy-3-methoxyphenyl)formamido]-3,3-diphenylpropanamide] were, in that order, 0.5 nM and 0.45 nM. The like results for `CC(C)CN(C(CO)CCCCNC(=O)[C@@H](NC(=O)c1ccc(O)c([N+](=O)[O-])c1)C(c1ccccc1)c1ccccc1)S(=O)(=O)c1ccc(N)cc1` (stereo partly drawn) [(2S)-N-[(5R)-5-[(4-aminobenzene)(2-methylpropyl)sulfonamido]-6-hydroxyhexyl]-2-[(4-hydroxy-3-nitrophenyl)formamido]-3,3-diphenylpropanamide] were, in that order, 0.56 nM and 0.48 nM. In the same order, the values of `CC(C)CN(C(CO)CCCCNC(=O)[C@@H](NC(=O)c1ccc(O)cc1)C(c1ccccc1)c1ccccc1)S(=O)(=O)c1ccc(N)cc1` (stereo partly drawn) [(2S)-N-[(5R)-5-[(4-aminobenzene)(2-methylpropyl)sulfonamido]-6-hydroxyhexyl]-2-[(4-hydroxyphenyl)formamido]-3,3-diphenylpropanamide] are 0.53 nM and 0.47 nM. As to `CC(C)CN(C(CO)CCCCNC(=O)[C@@H](NC(=O)c1ccc(N)nc1)C(c1ccccc1)c1ccccc1)S(=O)(=O)c1ccc(N)cc1` (stereo partly drawn) [(2S)-N-[(5R)-5-[(4-aminobenzene)(2-methylpropyl)sulfonamido]-6-hydroxyhexyl]-2-[(6-aminopyridin-3-yl)formamido]-3,3-diphenylpropanamide], half-maximal inhibition (IC50) required 0.4 nM and the Ki was 0.5 nM. `CC(C)CN(C(CO)CCCCNC(=O)[C@@H](NC(=O)c1ccc(=O)[nH]c1)C(c1ccccc1)c1ccccc1)S(=O)(=O)c1ccc(N)cc1` (stereo partly drawn) [(2S)-N-[(5R)-5-[(4-aminobenzene)(2-methylpropyl)sulfonamido]-6-hydroxyhexyl]-2-[(6-hydroxypyridin-3-yl)formamido]-3,3-diphenylpropanamide] registered an IC50 of 0.5 nM and a Ki of 0.4 nM. In the same order, the values of `Cc1ccc(C(=O)N[C@H](C(=O)NCCCCC(CO)N(CC(C)C)S(=O)(=O)c2ccc(N)cc2)C(c2ccccc2)c2ccccc2)cn1` (stereo partly drawn) [(2S)-N-[(5R)-5-[(4-aminobenzene)(2-methylpropyl)sulfonamido]-6-hydroxyhexyl]-2-[(6-methylpyridin-3-yl)formamido]-3,3-diphenylpropanamide] are 0.4 nM and 0.5 nM. The like results for `CC(C)CN(C(CO)CCCCNC(=O)[C@@H](NC(=O)N(C)C)C(c1ccccc1)c1ccccc1)S(=O)(=O)c1ccc(N)cc1` (stereo partly drawn) [(2S)-N-[(5R)-5-[(4-aminobenzene)(2-methylpropyl)sulfonamido]-6-hydroxyhexyl]-2-[(dimethylcarbamoyl)amino]-3,3-diphenylpropanamide] were, in that order, 0.44 nM and 0.58 nM. As to `CC(=O)N[C@H](C(=O)NCCCCC(CO)N(CC(C)C)S(=O)(=O)c1ccc(N)cc1)C(c1ccccc1)c1ccccc1` (stereo partly drawn) [(2S)-N-[(5R)-5-[(4-aminobenzene)(2-methylpropyl)sulfonamido]-6-hydroxyhexyl]-2-acetamido-3,3-diphenylpropanamide], the IC50 came out at 1.5 nM. `CC(C)CN(C(CO)CCCCNC(=O)[C@@H](NC(=O)c1ccc[nH]1)C(c1ccccc1)c1ccccc1)S(=O)(=O)c1ccc(N)cc1` (stereo partly drawn) [(2S)-N-[(5R)-5-[(4-aminobenzene)(2-methylpropyl)sulfonamido]-6-hydroxyhexyl]-3,3-diphenyl-2-(1H-pyrrol-2-ylformamido)propanamide] gave an IC50 of 0.43 nM and a Ki of 0.47 nM. For the compound `CC(C)CN(C(CO)CCCCNC(=O)[C@@H](NC(=O)c1ccccn1)C(c1ccccc1)c1ccccc1)S(=O)(=O)c1ccc(N)cc1` (stereo partly drawn) [(2S)-N-[(5R)-5-[(4-aminobenzene)(2-methylpropyl)sulfonamido]-6-hydroxyhexyl]-3,3-diphenyl-2-(pyridin-2-ylformamido)propanamide], the concentration for half-maximal inhibition (IC50) is 0.46 nM and the affinity corresponds to a Ki of 0.44 nM. The like results for `CC(C)CN(C(CO)CCCCNC(=O)[C@@H](NC(=O)c1cccnc1)C(c1ccccc1)c1ccccc1)S(=O)(=O)c1ccc(N)cc1` (stereo partly drawn) [(2S)-N-[(5R)-5-[(4-aminobenzene)(2-methylpropyl)sulfonamido]-6-hydroxyhexyl]-3,3-diphenyl-2-(pyridin-3-ylformamido)propanamide] were, in that order, 0.68 nM and 0.55 nM. The like results for `CC(C)CN(C(CO)CCCCNC(=O)[C@@H](NC(=O)c1ccncc1)C(c1ccccc1)c1ccccc1)S(=O)(=O)c1ccc(N)cc1` (stereo partly drawn) [(2S)-N-[(5R)-5-[(4-aminobenzene)(2-methylpropyl)sulfonamido]-6-hydroxyhexyl]-3,3-diphenyl-2-(pyridin-4-ylformamido)propanamide] were, in that order, 0.65 nM and 0.66 nM. As to `CC(C)CN(C(CO)CCCCNC(=O)[C@@H](NC(=O)Cc1cccnc1)C(c1ccccc1)c1ccccc1)S(=O)(=O)c1ccc(N)cc1` (stereo partly drawn) [(2S)-N-[(5R)-5-[(4-aminobenzene)(2-methylpropyl)sulfonamido]-6-hydroxyhexyl]-3,3-diphenyl-2-[1-(pyridin-3-yl)acetamido]propanamide], the IC50 came to 0.24 nM and the Ki is 0.34 nM.

Still in this test, the particulars now being: pH 4.7; 30 °C.
With `COC(=O)N1Cc2ccccc2C=C1C(=O)NCCCCC(CO)N(CC(C)C)S(=O)(=O)c1ccc(N)cc1` (stereo not given) [lysine sulfonamide analogue 8], the IC50 was found to be 130 nM. Still for that read-out and setting: the same measure for `COC(=O)N[C@@H](Cc1ccccc1-c1ccccc1)C(=O)NCCCCC(CO)N(CC(C)C)S(=O)(=O)c1ccc(N)cc1` (stereo partly drawn) [methyl N-[(1S)-1-{[(5R)-5-[(4-aminobenzene)(2-methylpropyl)sulfonamido]-6-hydroxyhexyl]carbamoyl}-2-(2-phenylphenyl)ethyl]carbamate]: 0.521 nM; for `COC(=O)N[C@@H](Cc1cccc2ccccc12)C(=O)NCCCCC(CO)N(CC(C)C)S(=O)(=O)c1ccc(N)cc1` (stereo partly drawn) [methyl N-[(1S)-1-{[(5R)-5-[(4-aminobenzene)(2-methylpropyl)sulfonamido]-6-hydroxyhexyl]carbamoyl}-2-(naphthalen-1-yl)ethyl]carbamate]: 1.2 nM.

The values are drawn from BindingDB's records for doi:10.1016/j.bmcl.2006.04.011 (Ambrilia Biopharma, 2006).
